These results are taken from patent publication US11065266B2, “Method of treating melanoma using an inhibitor of an atypical protein kinase C” (UNIVERSITY OF SOUTH FLORIDA, priority 2016, dated 2021).

The target in one assay is T1, PKM-ζ (Homo sapiens, UniProt Q05513).
T1 construct: proteolytic cleavage of N-regulatory domain and the C-terminal catalytic domain of PKC-ζ
T1 sequence (Q05513 1-409 isoform Q05513-2): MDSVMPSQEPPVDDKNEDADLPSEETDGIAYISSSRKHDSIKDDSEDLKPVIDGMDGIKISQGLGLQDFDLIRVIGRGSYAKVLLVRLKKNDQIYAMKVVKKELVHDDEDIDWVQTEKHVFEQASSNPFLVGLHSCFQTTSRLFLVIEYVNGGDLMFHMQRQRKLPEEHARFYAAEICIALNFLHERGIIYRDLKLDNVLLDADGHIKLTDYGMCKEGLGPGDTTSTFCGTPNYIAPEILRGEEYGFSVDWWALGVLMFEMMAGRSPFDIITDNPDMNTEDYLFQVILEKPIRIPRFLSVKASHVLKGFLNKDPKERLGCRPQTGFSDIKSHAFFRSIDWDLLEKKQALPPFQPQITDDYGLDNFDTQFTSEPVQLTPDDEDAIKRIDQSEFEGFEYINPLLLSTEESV
Kind of assay: PKC activity assay (phosphorylation of myelin basic protein). The class given is biochemical. Here is the method:
(§1) PKC activity assay was conducted by monitoring the phosphorylation of myelin basic protein (MBP), a known substrate for PKCs. The detailed procedure was performed as described in Ling, D. S. F. et al. (2002) for PKC-ι and PKM-ζ [37].
(§2) PKC activity assay was performed by suspending 0.5 μg of PKC-ζ and PKC-ι separately in 200 μL of PKC kinase buffer to test the ability of PKC-ζ and PKC-ι of phosphorylating and immunoprecipitating HSF-1 of the SK-MEL-2 cells and PCS-200-013 cells. The PKC kinase buffer composition was 20 mM Tris-HCL (pH of 7.5), 6 mM Magnesium acetate, phosphotidylserine ([…], 20 μL of 10 mg/mL solution), ATP (0.0045 mg/mL) and also the desired inhibitors, wherever appropriate (ICA-1, ACPD, DNDA and ζ-Stat). The inhibitor was used in two different concentrations as 1 μM and 0.5 μM. The reaction was terminated after incubation for 5 minutes at 30° C. by addition of sample loading buffer. Samples were then separated by PAGE and immunoblotted against anti-PKC antibodies (either PKC-ι or PKC-ζ) and against phosphospecific HSF-1 antibodies. Samples were also probed against anti-HSF-1 antibody to determine that the protein immunoprecipitaed was HSF-1. The signal was visualized using enhanced chemiluminescence.
(§3) The activity of DNDA (FIG. 2) was determined for a series of concentrations (0-20 μM) using recombinant active PKC-ι or PKM-ζ in the presence of MBP (5 μg). The maximum inhibition of PKC-ζ was 40% and reached at 2 (P≤0.05). Inhibition remained the same upon increasing the concentration PKM-ζ is an active form of PKC-ζ found in human brain due to proteolytic cleavage of N-regulatory domain and the C-terminal catalytic domain of PKC-ζ [27-29].

The target of the next assay is T2, recombinant active PKC-ι (Homo sapiens, UniProt P41743).
T2 sequence (P41743 1-596): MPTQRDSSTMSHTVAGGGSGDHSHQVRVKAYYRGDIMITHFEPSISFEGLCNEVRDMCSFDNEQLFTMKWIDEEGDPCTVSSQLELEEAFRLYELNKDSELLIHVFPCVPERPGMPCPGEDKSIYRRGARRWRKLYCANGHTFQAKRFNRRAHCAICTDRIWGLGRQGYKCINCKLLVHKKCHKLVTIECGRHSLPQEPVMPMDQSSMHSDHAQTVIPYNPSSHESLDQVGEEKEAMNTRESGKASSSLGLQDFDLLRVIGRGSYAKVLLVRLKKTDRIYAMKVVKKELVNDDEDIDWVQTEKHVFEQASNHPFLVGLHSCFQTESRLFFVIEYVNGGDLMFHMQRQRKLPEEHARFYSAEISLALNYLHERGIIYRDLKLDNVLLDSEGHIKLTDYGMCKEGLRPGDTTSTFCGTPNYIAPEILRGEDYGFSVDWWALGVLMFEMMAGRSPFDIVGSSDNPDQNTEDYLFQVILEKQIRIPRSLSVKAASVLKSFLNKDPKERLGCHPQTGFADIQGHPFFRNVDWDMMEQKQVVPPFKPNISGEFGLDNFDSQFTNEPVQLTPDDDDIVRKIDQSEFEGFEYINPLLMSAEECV
The assay is described as above. In kind it is biochemical. As to the method:
as §1, §2, §3

The next assay relates to MeWo cells. Nature of the assay: Wound healing assay. The class given is cell-based, human. As to conditions: 2.5 μM, day 3 or 4, p≤0.01. Here is the method:
For the wound-healing assay, melanoma cells were seeded into 35 mm dishes in 6-well-plates. After the cells had reached 100% confluency, the wound-healing assay was performed with a sterile pipette tip (1-10 μL pipette tip) by making a scratch through the confluent monolayer. Subsequently, the cells were washed with DPBS and fresh medium (EMEM) was added to each well and the desired amount of inhibitor was added in order to achieve the final concentrations of 50 nM, 100 nM, 200 nM, 500 nM and 1 μM against the control. Cells were cultured for 48 h. In 24 hours intervals, pictures of wound closure were taken and the percentage of wound closure was calculated in three randomly chosen fields.
A wound healing assay was performed to investigate the effect of ACPD and DNDA on malignant melanoma cell migration in vitro. Wound healing assay is commonly used to investigate in vitro migration of cancer cells. For the wound-healing assay, melanoma cells were seeded into 35 mm dishes in 6-well-plates. […] The percentage of wound closure was calculated after 3 or 4 days.
In one set of experiments, cells were cultured for 48 h. In 24 hours intervals, pictures of wound closure were taken and the percentage of wound closure was calculated in three randomly chosen fields. […] The areas of the scratch (wound) were calculated and compared to determine the statistical significance (FIG. 8C).

For the compound `O=S(=O)(O)c1cc(O)c2c(S(=O)(=O)O)cc(S(=O)(=O)O)cc2c1` [ζ-Stat, 8-hydroxy-1,3,6-naphthalenetrisulfonic acid], the “inhibition of PKM-ζ activity” value against PKM-ζ (kinase activity assay) is given as “more than 50%”. The “effect on PKC-ι in kinase activity assay” value at recombinant active PKC-ι was “does not effect”.
On to `CC(=O)C1=C(O)CCC1=O` [ACPD, 2-acetyl-1,3-cyclopentanedione], for which, in the assay with MeWo cells, the wound closure entry is “significantly reduce the wound closure”.
On to `Nc1c(S(=O)(=O)O)cc2cc(S(=O)(=O)O)ccc2c1N` [DNDA, 3,4-diamino-2,7-naphthalenedisulfonic acid], for which the “maximum inhibition of PKC-ζ” value at PKM-ζ (reached at 2 (unit not given), series 0-20 μM, MBP 5 μg) was 40%. At recombinant active PKC-ι (reached at 0.5 μM, series 0-20 μM, MBP 5 μg, read-out: maximum inhibition of PKC-ι), the inhibition at 0.5 µM is around 15%. In addition, the wound closure entry in the assay on MeWo cells is given as “significantly reduce the wound closure”.
